Measured values reported in US8802597B2, “Herbicidal pyrimidines” (E I du Pont de Nemours and Company, priority 2003, dated 2014).
Read-outs that look alike come from different tables or passages of the source.

Columns and labels:
Experiment in all cases: Test A pre/postemergence
Format in all cases: in vivo
[1] = tested on: velvetleaf (Abutilon theophrasti); conditions: for pest or weed control at 125 g/ha / pest or weed control at 500 g/ha: Abutilon theophrasti, 240 h, read-out: Plant response rating, Velvetleaf; for pest or weed control at 125 g/ha: 125 g ai/ha
Description: (§1) Seeds of barnyardgrass (Echinochloa crus-galli), crabgrass (Digitaria sanguinalis), giant foxtail (Setaria faberi), morningglory (Ipomoea spp.), redroot pigweed (Amaranthus retroflexus) and velvetleaf (Abutilon theophrasti) were planted into a blend of loam soil and sand and treated preemergence with a directed soil spray using test chemicals formulated in a non-phytotoxic solvent mixture which included a surfactant. At the same time these species were also treated with postemergence applications of test chemicals formulated in the same manner.
(§2) Plants ranged in height from 2 to 10 cm and were in the 1- to 2-leaf stage for the postemergence treatment. Treated plants and untreated controls were maintained in a greenhouse for approximately ten days, after which time all treated plants were compared to untreated controls and visually evaluated for injury. Plant response ratings, summarized in Table A, are based on a 0 to 100 scale where 0 is no effect and 100 is complete control. A dash (-) response means no test results.

[2] = tested on: barnyardgrass (Echinochloa crus-galli); conditions: for pest or weed control at 125 g/ha / pest or weed control at 500 g/ha: Echinochloa crus-galli, 240 h, read-out: Plant response rating, Barnyardgrass; for pest or weed control at 125 g/ha: 125 g ai/ha
Description: as §1, §2

[3] = tested on: giant foxtail (Setaria faberi); conditions: for pest or weed control at 125 g/ha / pest or weed control at 500 g/ha: Setaria faberi, 240 h, read-out: Plant response rating, Foxtail, Giant; for pest or weed control at 125 g/ha: 125 g ai/ha
Description: as §1, §2

[4] = tested on: redroot pigweed (Amaranthus retroflexus); conditions: for pest or weed control at 125 g/ha / pest or weed control at 500 g/ha: Amaranthus retroflexus, 240 h, read-out: Plant response rating, Pigweed; for pest or weed control at 125 g/ha: 125 g ai/ha
Description: as §1, §2

[5] = tested on: crabgrass (Digitaria sanguinalis); conditions: for pest or weed control at 125 g/ha / pest or weed control at 500 g/ha: Digitaria sanguinalis, 240 h, read-out: Plant response rating, Crabgrass; for pest or weed control at 125 g/ha: 125 g ai/ha
Description: as §1, §2

[6] = tested on: morningglory (Ipomoea spp.); conditions: for pest or weed control at 125 g/ha / pest or weed control at 500 g/ha: Ipomoea, 240 h, read-out: Plant response rating, Morningglory; for pest or weed control at 125 g/ha: 125 g ai/ha
Description: as §1, §2

[7] = post-emergence, Postemergence, 0 to 100 scale (0 no effect, 100 complete control)
[8] = post-emergence, Postemergence, 500 g ai/ha, 0 to 100 scale (0 no effect, 100 complete control)
[9] = pre-emergence, Preemergence, 0 to 100 scale where 0 is no effect and 100 is complete control, approximately ten days
[10] = pre-emergence, Preemergence, 500 g ai/ha, 0 to 100 scale where 0 is no effect and 100 is complete control, approximately ten days
[11] = Postemergence, 250 g ai/ha, 0 to 100 scale (0 no effect, 100 complete control)
[12] = Postemergence, 1000 g ai/ha, 0 to 100 scale (0 no effect, 100 complete control)
[13] = Preemergence, 250 g ai/ha, 0 to 100 scale where 0 is no effect and 100 is complete control, approximately ten days
[14] = Preemergence, 1000 g ai/ha, 0 to 100 scale (0 no effect, 100 complete control)
[15] = Postemergence, 500 g ai/ha, 0 to 100 scale (0 no effect, 100 complete control)
[16] = Postemergence, 2000 g ai/ha, 0 to 100 scale (0 no effect, 100 complete control)
[17] = Preemergence, 500 g ai/ha, 0 to 100 scale where 0 is no effect and 100 is complete control, approximately ten days
[18] = Preemergence, 2000 g ai/ha, 0 to 100 scale (0 no effect, 100 complete control)

NC(=O)c1nc(C2CC2)nc(N)c1Br [Compound 20]
pest or weed control at 125 g/ha [1, 7]: 10% | pest or weed control at 500 g/ha [1, 8]: 55% | pest or weed control at 125 g/ha [1, 9]: 0% | pest or weed control at 500 g/ha [1, 10]: 70% | pest or weed control at 125 g/ha [2, 7]: 0% | pest or weed control at 500 g/ha [2, 8]: 0% | pest or weed control at 125 g/ha [2, 9]: 0% | pest or weed control at 500 g/ha [2, 10]: 0% | pest or weed control at 125 g/ha [3, 7]: 0% | pest or weed control at 500 g/ha [3, 8]: 0% | pest or weed control at 125 g/ha [3, 9]: 0% | pest or weed control at 500 g/ha [3, 10]: 0% | pest or weed control at 125 g/ha [4, 7]: 40% | pest or weed control at 500 g/ha [4, 8]: 60% | pest or weed control at 125 g/ha [4, 9]: 40% | pest or weed control at 500 g/ha [4, 10]: 70% | pest or weed control at 125 g/ha [5, 7]: 0% | pest or weed control at 500 g/ha [5, 8]: 0% | pest or weed control at 125 g/ha [5, 9]: 0% | pest or weed control at 500 g/ha [5, 10]: 0% | pest or weed control at 125 g/ha [6, 7]: 20% | pest or weed control at 500 g/ha [6, 8]: 40% | pest or weed control at 125 g/ha [6, 9]: 10% | pest or weed control at 500 g/ha [6, 10]: 60%

COC(=O)c1nc(-c2ccc(F)cc2)nc(N)c1Cl [Compound 43]
Plant response rating, Velvetleaf [1, 11]: 50 | Plant response rating, Velvetleaf [1, 12]: 50 | Plant response rating, Velvetleaf [1, 13]: 0 | Plant response rating, Velvetleaf [1, 14]: 20 | Plant response rating, Barnyardgrass [2, 11]: 10 | Plant response rating, Barnyardgrass [2, 12]: 20 | Plant response rating, Barnyardgrass [2, 13]: 0 | Plant response rating, Barnyardgrass [2, 14]: 10 | Plant response rating, Foxtail, Giant [3, 11]: 10 | Plant response rating, Foxtail, Giant [3, 12]: 10 | Plant response rating, Foxtail, Giant [3, 13]: 0 | Plant response rating, Foxtail, Giant [3, 14]: 10 | Plant response rating, Pigweed [4, 11]: 60 | Plant response rating, Pigweed [4, 12]: 85 | Plant response rating, Pigweed [4, 13]: 0 | Plant response rating, Pigweed [4, 14]: 75 | Plant response rating, Crabgrass [5, 11]: 10 | Plant response rating, Crabgrass [5, 12]: 30 | Plant response rating, Crabgrass [5, 13]: 0 | Plant response rating, Crabgrass [5, 14]: 10 | Plant response rating, Morningglory [6, 11]: 20 | Plant response rating, Morningglory [6, 12]: 45 | Plant response rating, Morningglory [6, 13]: 0 | Plant response rating, Morningglory [6, 14]: 45

CCOC(=O)C(O)c1nc(C2CC2)nc(N)c1Br (stereo not drawn) [Compound 57]
Plant response rating, Velvetleaf [1, 15]: 50 | Plant response rating, Velvetleaf [1, 16]: 80 | Plant response rating, Velvetleaf [1, 17]: 80 | Plant response rating, Velvetleaf [1, 18]: 95 | Plant response rating, Barnyardgrass [2, 15]: 25 | Plant response rating, Barnyardgrass [2, 16]: 75 | Plant response rating, Barnyardgrass [2, 17]: 25 | Plant response rating, Barnyardgrass [2, 18]: 80 | Plant response rating, Foxtail, Giant [3, 15]: 60 | Plant response rating, Foxtail, Giant [3, 16]: 80 | Plant response rating, Foxtail, Giant [3, 17]: 10 | Plant response rating, Foxtail, Giant [3, 18]: 70 | Plant response rating, Pigweed [4, 15]: 75 | Plant response rating, Pigweed [4, 16]: 95 | Plant response rating, Pigweed [4, 17]: 90 | Plant response rating, Pigweed [4, 18]: 100 | Plant response rating, Crabgrass [5, 15]: 10 | Plant response rating, Crabgrass [5, 16]: 30 | Plant response rating, Crabgrass [5, 17]: 10 | Plant response rating, Crabgrass [5, 18]: 70 | Plant response rating, Morningglory [6, 15]: 70 | Plant response rating, Morningglory [6, 16]: 80 | Plant response rating, Morningglory [6, 17]: 100 | Plant response rating, Morningglory [6, 18]: 100

CCOC(=O)c1nc(-c2ccc3c(c2)OCO3)nc(N)c1Br [Compound 68]
pest or weed control at 125 g/ha [1, 7]: 60% | pest or weed control at 500 g/ha [1, 8]: 60% | pest or weed control at 125 g/ha [1, 9]: 5% | pest or weed control at 500 g/ha [1, 10]: 10% | pest or weed control at 125 g/ha [2, 7]: 0% | pest or weed control at 500 g/ha [2, 8]: 0% | pest or weed control at 125 g/ha [2, 9]: 0% | pest or weed control at 500 g/ha [2, 10]: 0% | pest or weed control at 125 g/ha [3, 7]: 0% | pest or weed control at 500 g/ha [3, 8]: 0% | pest or weed control at 125 g/ha [3, 9]: 0% | pest or weed control at 500 g/ha [3, 10]: 0% | pest or weed control at 125 g/ha [4, 7]: 50% | pest or weed control at 500 g/ha [4, 8]: 55% | pest or weed control at 125 g/ha [4, 9]: 0% | pest or weed control at 500 g/ha [4, 10]: 15% | pest or weed control at 125 g/ha [5, 7]: 0% | pest or weed control at 500 g/ha [5, 8]: 0% | pest or weed control at 125 g/ha [5, 9]: 0% | pest or weed control at 500 g/ha [5, 10]: 0% | pest or weed control at 125 g/ha [6, 7]: 15% | pest or weed control at 500 g/ha [6, 8]: 35% | pest or weed control at 125 g/ha [6, 9]: 0% | pest or weed control at 500 g/ha [6, 10]: 0%

CNC(=O)c1nc(C2CC2)nc(N)c1Cl [Compound 81]
pest or weed control at 125 g/ha [1, 7]: 50% | pest or weed control at 500 g/ha [1, 8]: 75% | pest or weed control at 125 g/ha [1, 9]: 20% | pest or weed control at 500 g/ha [1, 10]: 40% | pest or weed control at 125 g/ha [2, 7]: 0% | pest or weed control at 500 g/ha [2, 8]: 30% | pest or weed control at 125 g/ha [2, 9]: 10% | pest or weed control at 500 g/ha [2, 10]: 20% | pest or weed control at 125 g/ha [3, 7]: 0% | pest or weed control at 500 g/ha [3, 8]: 30% | pest or weed control at 125 g/ha [3, 9]: 0% | pest or weed control at 500 g/ha [3, 10]: 10% | pest or weed control at 125 g/ha [4, 7]: 55% | pest or weed control at 500 g/ha [4, 8]: 75% | pest or weed control at 125 g/ha [4, 9]: 60% | pest or weed control at 500 g/ha [4, 10]: 70% | pest or weed control at 125 g/ha [5, 7]: 0% | pest or weed control at 500 g/ha [5, 8]: 10% | pest or weed control at 125 g/ha [5, 9]: 0% | pest or weed control at 500 g/ha [5, 10]: 10% | pest or weed control at 125 g/ha [6, 7]: 50% | pest or weed control at 500 g/ha [6, 8]: 80% | pest or weed control at 125 g/ha [6, 9]: 0% | pest or weed control at 500 g/ha [6, 10]: 50%
